Key:
[1] = Body weight of CIPN rats (oxaliplatin-induced peripheral neuropathy model); format: in vivo, rat; settings: oxaliplatin 4 mg/kg i.p. twice per week; after 7 days of modeling
From the text: (§1) Animals were housed 3 per cage in a temperature- and humidity-controlled environment under a 12/12-h light/dark cycle. Food and water were freely available. All experimental procedures were approved by the Animal Experimental committee of Jiangsu Province Academy of Traditional Chinese Medicine. All efforts were made to minimize the number of animals used and their suffering.
(§2) (1) Animal Grouping: the rats were randomly divided into five groups by using randomized grouping method (N=10 rats/group):
(§3) Group 1: saline (control group)
(§4) (2) Modeling and Administration: The first day of drug treatment was referred to as d1. […] After the last administration, the rats were sacrificed. Spinal cord and L5 dorsal root ganglia were harvested from all experimental animals, and taken to make tissue sections, which were stained with Nissl staining to observe the extent of damage in neurons. The expressions of pain-related TRP ion channel proteins, TRPMS, TRPV1, and TRPA1mRNA, in dorsal root ganglion tissue were determined by qPCR assay. (4) Von Frey test for mechanical allodynia: According to the method described by Chaplan et al^[22], the mechanical allodynia was assessed by von Frey test. Rats were placed in a clear plastic box (22×12×22 cm) with a wire mesh floor and allowed to habituate for 15 min prior to testing. […] 3.

[2] = tested on: CIPN rats; assay: Von Frey test for mechanical allodynia in CIPN rats; format: in vivo, rat; settings: oxaliplatin 4 mg/kg i.p.; 14 days after the experiment; P<0.05
From the text: as §1, §2, §3, §4

[3] = tested on: DRG neurons; assay: Nissl staining of L5 dorsal root ganglia sections of CIPN rats; format: in vivo, rat; settings: oxaliplatin 4 mg/kg i.p.
Protocol: as §4

[4] = tested on: TRPM8 mRNA; assay: TRPM8 mRNA expression in DRG by real-time PCR; format: in vivo, rat; settings: L4-L6 DRG; oxaliplatin model group; P<0.01
Protocol: as §4, with “Withdrawal responses to the stimulation of von Frey filaments were recorded and paw withdrawal thresholds were determined by a modified up-down method. Each von Frey filament with equivalent force was measured for five times, and the time interval between simulations was 30 seconds, 3 or more times of positive reactions out of 5 simulations was deemed to be mechanical allodynia. […]” for “3.”
(§5) To elucidate the mechanism of the preventive effect of AC591 on oxaliplatin-induced peripheral neuropathy, we determined the expression of TRPM8, TRPV1 and TRPA1 mRNA in L4-L6 DRG using real-time PCR.

[5] = tested on: TRPV1 mRNA; assay: TRPV1 mRNA expression in DRG by real-time PCR; format: in vivo, rat; settings: L4-L6 DRG; oxaliplatin model group; P<0.01
Protocol: as §4, with “Withdrawal responses to the stimulation of von Frey filaments were recorded and paw withdrawal thresholds were determined by a modified up-down method. Each von Frey filament with equivalent force was measured for five times, and the time interval between simulations was 30 seconds, 3 or more times of positive reactions out of 5 simulations was deemed to be mechanical allodynia. […]” for “3.”
as §5

[6] = tested on: TRPA1 mRNA; assay: TRPA1 mRNA expression in DRG by real-time PCR; format: in vivo, rat; settings: L4-L6 DRG; oxaliplatin model group; P<0.01
Protocol: as §4, with “Withdrawal responses to the stimulation of von Frey filaments were recorded and paw withdrawal thresholds were determined by a modified up-down method. Each von Frey filament with equivalent force was measured for five times, and the time interval between simulations was 30 seconds, 3 or more times of positive reactions out of 5 simulations was deemed to be mechanical allodynia. […]” for “3.”
as §5

[7] = tested on: CT26 murine colorectal cancer cells; assay: Colorectal cancer subcutaneous xenograft, tumor volume; format: in vivo, Balb/c mice; settings: oxaliplatin 5 mg/kg i.p.; days 4 and 7; P<0.05
Protocol: Experimental Animals and Cell Lines: Six-week-old Balb/c mice weighing (16±2) g, bisexual each half, were purchased from Shanghai Slac Laboratory Animal Center and kept in SPF Laboratory Animal Room in Institute of Chinese Medicine and Pharmacy of Jiangsu Province. CT26 murine colorectal cancer cells were obtained from molecular biology laboratory of Institute of Chinese Medicine and Pharmacy of Jiangsu Province.
CT26 cells were cultured in Dulbecco's Modified Eagle Medium with 2.0 g/1 sodium bicarbonate plus 10% fetal bovine serum, 1% L-glutamine, 100 U/ml penicillin and 100 U/ml streptomycin. When the cells were approximately 80% confluent, the culture medium was discarded and washed with PBS. Trypsin was then introduced to perform digestion. When the connection between cells appeared loose, the trypsin was discarded, and cell culture medium was introduced to terminate the digestion. Cells were repeatedly and gently pipetted with a pipette so as to be taken off the wall to form cell suspension. It was collected into centrifuge tubes and centrifuged. The concentration of cell suspension was adjusted to 1×10^6/0.2 ml with 0.9% sterile saline. […]
Tumor volume and body weight were recorded every 3 days, and the tumor volume was calculated using the formula: tumor volume (mm^3)=length (mm)×width (mm)^2/2. […]

[8] = cumulative dose of 1170 mg/m^2; cited from earlier work

Question: What does the source list for `O=C1[O][Pt]2([NH][C@@H]3CCCC[C@H]3[NH]2)[O]C1=O` [oxaliplatin]?
Answer: body weight of rats in model group versus control group [1]: significantly lower; mechanical paw-withdrawing threshold, model group compared with control group [2]: significantly decreased; DRG neuron morphology in model group [3]: part of cell bodies and nuclei of neurons greatly shrinked; expression of TRPM8 mRNA, increase in model group compared with control group [4]: 2-4 fold; expression of TRPV1 mRNA, increase in model group compared with control group [5]: 2-4 fold; expression of TRPA1 mRNA, increase in model group compared with control group [6]: 2-4 fold; tumour volumes compared with vehicle [7]: significantly inhibited the increase of tumour volumes; risk of neurotoxicity [8]: 50%
